Assay results published in paper PMC6778101 (Nature Communications, 2019).
“Also recorded” adds a separate entry of the source. Ends that are not written are not given here. Peptide text beside a SMILES is read from it.

Tests used:
[1] = system: E. coli K-12 BW25113 carrying single mutations; experiment: MIC change in single-mutation strains (basS L194R, mlaD a342del, waaY M1†); assay type: cell-based, Escherichia coli
[2] = system: E. coli K-12 BW25113 bearing the metagenomic plasmid library; experiment: Functional metagenomic screen of a soil library, gradient plate selection; assay type: cell-based, Escherichia coli
E. coli mutD5 = experiment: Laboratory evolution of resistance in mutator strain, MIC fold change; assay type: cell-based, Escherichia coli; conditions: for MIC fold change after the evolution: mutD5 mutator strain (*)
Source text: (§1) Unless otherwise indicated, we used E. coli K-12 BW25113 in all high-throughput experiments. To investigate the impact of mutation rate on evolution of AMP resistance, we initiated laboratory evolution with a mutator strain E. coli mutD5 that carries mutations in the dnaQ gene (L73W and A164V).
The evolutionary protocol was designed to avoid population extinction and to ensure that populations with the highest level of resistance were propagated further. Starting with a subinhibitory drug concentration (Supplementary Data 8), resulting in ~50% growth inhibition, 10 parallel populations per drug were allowed to grow in Minimal Salts medium for 72 h and 300 r.p.m. E. coli K-12 BW25113 and E. coli mutD5 populations were incubated at 30 °C, while E. coli ATCC 25922, S. enterica LT2, K. pneumonia ATCC 10031, and A. baumannii ATCC 17978 were incubated at 37 °C. […] Prior to each transfer, cell growth was monitored by measuring the optical density at 600 nm (OD600 value, Biotek Synergy 2 microplate reader). Only populations with the highest drug concentration (and reaching OD600 > 0.2) were selected for further evolution. A chess-board layout was used on the plate to monitor potential cross-contamination events. […] E. coli mutD5 was adapted to TPII, also in 10 parallel evolving populations.
(§2) MICs were determined using a standard serial broth dilution technique. Briefly, 11-step serial dilutions were prepared in 96-well microtiter plates with three replicates per strain and antimicrobial compound. Each experiment was repeated at least twice. 5 × 10^5 cells/mL were inoculated into each well, and the plates were incubated at 30 °C in case of E. coli K-12 BW25113, and its antibiotic and AMP-adapted lines, or 37 °C in case of the other bacterial species. Plates were shaken at 300 r.p.m. during incubation for 24 and 18 h, respectively. Cell growth was monitored by measuring the optical density (OD600 value, Biotek Synergy 2 microplate reader was used for this purpose). […] Relative MIC was calculated as follows: MICrelative = MICevolved/MICcontrol.

[3] = system: Shigella flexneri HNCMB 20018; assay type: cell-based; conditions: broth dilution, 37 °C, 18 h
Method: as §1, §2

[4] = system: Pseudomonas aeruginosa ATCC 27853; assay type: cell-based; conditions: broth dilution, 37 °C, 18 h
Method: as §1, §2

[5] = system: Shigella sonnei HNCMB 25021; assay type: cell-based; conditions: broth dilution, 37 °C, 18 h
Method: as §1, §2

[6] = system: Staphylococcus aureus subsp. aureus ATCC 29213; assay type: cell-based; conditions: broth dilution, 37 °C, 18 h
Method: as §1, §2

[7] = system: Salmonella enteritidis HNCMB 10092; assay type: cell-based; conditions: broth dilution, 37 °C, 18 h
Method: as §1, §2

[8] = system: Enterobacter cloacae subsp. cloacae ATCC 13047; assay type: cell-based; conditions: broth dilution, 37 °C, 18 h
Method: as §1, §2

[9] = system: Klebsiella pneumoniae subsp. pneumoniae ATCC 700603; assay type: cell-based; conditions: broth dilution, 37 °C, 18 h
Method: as §1, §2

[10] = system: Methicillin-resistant Staphylococcus aureus subsp. aureus ATCC 43300; assay type: cell-based; conditions: broth dilution, 37 °C, 18 h
Method: as §1, §2

[11] = system: Staphylococcus aureus subsp. aureus ATCC 25923; assay type: cell-based; conditions: broth dilution, 37 °C, 18 h
Method: as §1, §2

[12] = system: Klebsiella pneumoniae NCTC 13440; assay type: cell-based; conditions: broth dilution, 37 °C, 18 h
Method: as §1, §2

[13] = system: Escherichia coli ATCC BAA 2469; assay type: cell-based; conditions: broth dilution, 37 °C, 18 h
Method: as §1, §2

[14] = system: Enterococcus faecium ATCC 700221; assay type: cell-based; conditions: broth dilution, 37 °C, 18 h
Method: as §1, §2

[15] = system: Streptococcus pyogenes ATCC 19653; assay type: cell-based; conditions: broth dilution, 37 °C, 18 h
Method: as §1, §2

[16] = system: Escherichia coli NCTC 13351; assay type: cell-based; conditions: broth dilution, 37 °C, 18 h
Method: as §1, §2

[17] = system: Escherichia coli ATCC 35218; assay type: cell-based; conditions: broth dilution, 37 °C, 18 h
Method: as §1, §2

[18] = system: Escherichia coli ATCC BAA 2340; assay type: cell-based; conditions: broth dilution, 37 °C, 18 h
Method: as §1, §2

K. pneumoniae ATCC 10031 = assay type: cell-based, Klebsiella pneumoniae; conditions: Klebsiella pneumoniae ATCC 10031; broth dilution, 37 °C, 18 h
Method: as §1, §2

A. baumannii ATCC 17978 = assay type: cell-based, Acinetobacter baumannii; conditions: Acinetobacter baumannii ATCC 17978; broth dilution, 37 °C, 18 h
Method: as §1, §2

## CC[C@H](C)[C@@H]1NC(=O)CNC(=O)[C@H](CCCNC(=N)N)NC(=O)[C@H](Cc2ccc(O)cc2)NC(=O)[C@@H]2CSSC[C@H](NC1=O)C(=O)N[C@@H](Cc1ccc(O)cc1)C(=O)N[C@@H](CCCNC(=N)N)C(=O)N[C@@H](CCCCN)C(=O)N[C@H](C(=O)N[C@@H](CCCNC(=N)N)C(N)=O)CSSC[C@H](NC(=O)[C@H](Cc1c[nH]c3ccccc13)NC(=O)[C@@H](N)CCCNC(=N)N)C(=O)N[C@@H](Cc1ccccc1)C(=O)N[C@@H](CCCNC(=N)N)C(=O)N[C@@H](C(C)C)C(=O)N2 [TPII, tachyplesin II] (HELM PEPTIDE1{R.W.C.F.R.V.C.Y.R.G.I.C.Y.R.K.C.R.[am]}$PEPTIDE1,PEPTIDE1,3:R3-16:R3|PEPTIDE1,PEPTIDE1,7:R3-12:R3$$$V2.0; N-terminus and C-terminus assumed; bridges inferred)
[1]; mutations inserted individually into E. coli K-12 BW25113
  resistance conferred by single mutations basS L194R, mlaD a342del, waaY M1† (in words): no resistance
[1]; strain with reinserted mutation basS L194R (CTG→CGG)
  Relative MIC compared to the wild-type: 1.0
[1]; strain with reinserted mutation mlaD a342del
  Relative MIC compared to the wild-type: 1.0
[1]; strain with reinserted mutation waaY M1† (ATG→CTG)
  Relative MIC compared to the wild-type: 1.0
[2]
  resistant clones / resistance-conferring DNA segments from the soil metagenomic library (in words): failed to find DNA segments that would provide resistance
[2]; soil metagenomic library, 1.5–5 kb fragments, gradient plate, 30 °C, 24 h
  Number of resistant contig: 0
E. coli mutD5; 10 laboratory evolved E. coli K-12 mutD5 populations
  resistance in evolved mutator populations (in words): none of the 10 laboratory evolved mutator E. coli K-12 mutD5 populations displayed resistance; also recorded: failed to develop resistance
E. coli mutD5; Escherichia coli mutD5 mutator strain, parallel line 1 of 10
  MIC fold change following 20 transfers: 1.4 fold
E. coli mutD5; parallel-evolved line 1
  MIC fold change after the evolution: 1
E. coli mutD5; parallel-evolved line 2
  MIC fold change after the evolution: 1
E. coli mutD5; parallel-evolved line 3
  MIC fold change after the evolution: 1
E. coli mutD5; parallel-evolved line 4
  MIC fold change after the evolution: 1
E. coli mutD5; parallel-evolved line 5
  MIC fold change after the evolution: 1
E. coli mutD5; parallel-evolved line 6
  MIC fold change after the evolution: 1
E. coli mutD5; parallel-evolved line 7
  MIC fold change after the evolution: 1
E. coli mutD5; parallel-evolved line 8
  MIC fold change after the evolution: 1
E. coli mutD5; parallel-evolved line 9
  MIC fold change after the evolution: 1
E. coli mutD5; parallel-evolved line 10
  MIC fold change after the evolution: 1

## SWLSKTAKKLENSAKKRISEGIAIAIQGGPR [CP1, Cecropin P1]
[3]
  MIC: 1.2 µM
[4]
  MIC: 2.4 µM
[5]
  MIC: 0.6 to 1.2 µM
[6]
  MIC: > 9.6 µM
[7]
  MIC: 1.2 µM
[8]
  MIC: > 9.6 µM
[9]
  MIC: 2.4 µM
[10]
  MIC: > 9.6 µM
[11]
  MIC: > 9.6 µM
[12]
  MIC: 1.2 µM
[13]
  MIC: 1.2 µM
[14]
  MIC: > 9.6 µM
[15]
  MIC: > 9.6 µM
[16]
  MIC: 0.6 to 1.2 µM
[17]
  MIC: 1.2 µM
[18]
  MIC: 1.2 µM
K. pneumoniae ATCC 10031
  MIC: 1.2 to 2.4 µM
A. baumannii ATCC 17978
  MIC: 0.6 to 1.2 µM
